Where “and” joins values, the source holds several entries; their conditions need not be identical. Equal entries are not always repeated. Where two headings read alike, the source gives them in different places.
Key:
CTX-M-14 = CTX-M-14 (Escherichia coli, UniProt Q9L5C7); experiment: Ki app of β-lactamase inhibition, purified enzyme; format: biochemical; conditions: 10-minute preincubation; nitrocefin substrate
Procedure: (§1) The majority of purified β-lactamase enzymes used in the study were either expressed and purified internally ([35]) or obtained from Emerald Biostructures (Bainbridge Island, WA, USA). L1 enzyme was purified as described in reference ([36]).
(§2) Enzymes were mixed with BLIs at concentrations varying from 160 to 0.0027 µM in 50-mM Na-phosphate pH7.0, 0.1-mg/mL bovide serum albumin (BSA) (buffer A; 20-µM ZnCl2 was also added for all metalloenzymes) and incubated for 10 minutes at 37°C. Nitrocefin (50 µM) (10 µM for SHV-12) or 100 µM of imipenem (prewarmed at 37°C for 10 minutes) was added, and substrate cleavage profiles were recorded at 37°C at 490 nm every 10 seconds for 10 minutes or at 294 nm every 30 seconds for 1 hour for nitrocefin and imipenem, respectively. […] Ki app values (Ki for metalloenzymes) were calculated by the method of Waley ([37]).

CTX-M-15 = CTX-M-15 (Escherichia coli, UniProt Q9EXV5); experiment: Ki app of β-lactamase inhibition, purified enzyme; format: biochemical; conditions: 10-minute preincubation; nitrocefin substrate
Procedure: as §1, §2

OXA-23 = OXA-23 (Acinetobacter baumannii, UniProt Q9L4P2); experiment: Ki app of β-lactamase inhibition, purified enzyme; format: biochemical; conditions: 10-minute preincubation; nitrocefin substrate
Procedure: as §1, §2

P99 = P99 (Enterobacter cloacae, UniProt P05364); experiment: Ki app of β-lactamase inhibition, purified enzyme; format: biochemical; conditions: 10-minute preincubation; nitrocefin substrate; read-out: Ki app
Procedure: as §1, §2

PDC1 = PDC1 (Pseudomonas aeruginosa, UniProt P24735); experiment: Ki app of β-lactamase inhibition, purified enzyme; format: biochemical; conditions: 10-minute preincubation; nitrocefin substrate
Procedure: as §1, §2

[1] = tested on: Escherichia coli NCTC 13353 (ECM7514), CTX-M-15; experiment: MIC, reference strain; format: cell-based; conditions: for MIC: CTX-M-15, BLI at the fixed concentration in brackets
Procedure: (§3) Other BL/BLI combinations were tested at their recommended BLI concentrations. MIC values for the partner antibiotics and BLIs alone were also determined (Table 2; Table S1). All investigational and marketed BLIs enhanced the potency of antibiotics according to their spectrum of inhibition. MIC values against CLSI-approved QC strains were within acceptable ranges for drugs and combinations tested (Table 3).
(§4) Isolates were tested for antimicrobial susceptibility using the broth microdilution methodology per CLSI M07 (2018) guidelines ([40]). JMI Laboratories produced frozen-form 96-well panels with cation-adjusted Mueller-Hinton broth as the testing medium. Current CLSI quality assurance practices were followed when performing the susceptibility tests. MIC values were validated by concurrently testing the following CLSI-recommended ([27]) QC reference strains: E. coli NCTC 13353 (CTX-M-15), Klebsiella pneumoniae ATCC BAA-2814 (KPC-3), Klebsiella pneumoniae ATCC BAA-1705 (KPC-2), and K. pneumoniae ATCC 700603 (SHV-18). The inoculum density during susceptibility testing was monitored by bacterial colony counts. Where applicable, QC ranges for tested reference strains were those approved or published by the CLSI ([27]). Meropenem was purchased from Carbosynth; ceftolozane was synthesized at Acme Bioscience, Palo Alto, CA, USA; all other antibiotics were from Sigma Aldrich. Xeruborbactam was synthesized at Qpex Biopharma, San Diego, CA, USA. Avibactam was purchased from eNovation, Chemicals LLC, Bridgewater, NJ, USA. Vaborbactam was synthesized at The Medicines Company, San Diego, CA. Relebactam, taniborbactam, and relebactam were synthesized at Acme Bioscience.

[2] = tested on: E. coli CDC 0069 (EC1106), NDM-1; experiment: MIC, reference strain; format: cell-based; conditions: BLI at the fixed concentration in brackets
Procedure: as §3
as §4, with “([27]).” for “([27]). Meropenem was purchased from Carbosynth; ceftolozane was synthesized at Acme Bioscience, Palo Alto, CA, USA; all other antibiotics were from Sigma Aldrich. Xeruborbactam was synthesized at Qpex Biopharma, San Diego, CA, USA. Avibactam was purchased from eNovation, Chemicals LLC, Bridgewater, NJ, USA. Vaborbactam was synthesized at The Medicines Company, San Diego, CA. Relebactam, taniborbactam, and relebactam were synthesized at Acme Bioscience.”

[3] = tested on: K. pneumoniae ATCC BAA-1705 (KPM1123), KPC-2; experiment: MIC, reference strain; format: cell-based; conditions: for MIC: KPC-2, BLI at the fixed concentration in brackets
Procedure: as §3
as §4, with “([27]).” for “([27]). Meropenem was purchased from Carbosynth; ceftolozane was synthesized at Acme Bioscience, Palo Alto, CA, USA; all other antibiotics were from Sigma Aldrich. Xeruborbactam was synthesized at Qpex Biopharma, San Diego, CA, USA. Avibactam was purchased from eNovation, Chemicals LLC, Bridgewater, NJ, USA. Vaborbactam was synthesized at The Medicines Company, San Diego, CA. Relebactam, taniborbactam, and relebactam were synthesized at Acme Bioscience.”

[4] = tested on: K. pneumoniae ATCC BAA-2814 (KP1074), KPC-3; experiment: MIC, reference strain; format: cell-based; conditions: for MIC: KPC-3, BLI at the fixed concentration in brackets
Procedure: as §3
as §4, with “([27]).” for “([27]). Meropenem was purchased from Carbosynth; ceftolozane was synthesized at Acme Bioscience, Palo Alto, CA, USA; all other antibiotics were from Sigma Aldrich. Xeruborbactam was synthesized at Qpex Biopharma, San Diego, CA, USA. Avibactam was purchased from eNovation, Chemicals LLC, Bridgewater, NJ, USA. Vaborbactam was synthesized at The Medicines Company, San Diego, CA. Relebactam, taniborbactam, and relebactam were synthesized at Acme Bioscience.”

[5] = tested on: K. pneumoniae CDC 0135 (KP1291), VIM-1; experiment: MIC, reference strain; format: cell-based; conditions: BLI at the fixed concentration in brackets
Procedure: as §3
as §4, with “([27]).” for “([27]). Meropenem was purchased from Carbosynth; ceftolozane was synthesized at Acme Bioscience, Palo Alto, CA, USA; all other antibiotics were from Sigma Aldrich. Xeruborbactam was synthesized at Qpex Biopharma, San Diego, CA, USA. Avibactam was purchased from eNovation, Chemicals LLC, Bridgewater, NJ, USA. Vaborbactam was synthesized at The Medicines Company, San Diego, CA. Relebactam, taniborbactam, and relebactam were synthesized at Acme Bioscience.”

[6] = tested on: Klebsiella pneumoniae ATCC 700603 (KPM2881), SHV-18; experiment: MIC, reference strain; format: cell-based; conditions: for MIC: SHV-18, BLI at the fixed concentration in brackets
Procedure: as §3
as §4, with “([27]).” for “([27]). Meropenem was purchased from Carbosynth; ceftolozane was synthesized at Acme Bioscience, Palo Alto, CA, USA; all other antibiotics were from Sigma Aldrich. Xeruborbactam was synthesized at Qpex Biopharma, San Diego, CA, USA. Avibactam was purchased from eNovation, Chemicals LLC, Bridgewater, NJ, USA. Vaborbactam was synthesized at The Medicines Company, San Diego, CA. Relebactam, taniborbactam, and relebactam were synthesized at Acme Bioscience.”

[7] = tested on: P. aeruginosa BAA-3197 (PA5257), KPC-2; experiment: MIC, reference strain; format: cell-based; conditions: for MIC: KPC-2, BLI at the fixed concentration in brackets
[8] = tested on: surveillance isolates of carbapenem-resistant strains of Enterobacterales; experiment: MIC testing of SENTRY surveillance CRE isolates (Table 4, Table S4); format: cell-based

P99, sequence (P05364 21-381): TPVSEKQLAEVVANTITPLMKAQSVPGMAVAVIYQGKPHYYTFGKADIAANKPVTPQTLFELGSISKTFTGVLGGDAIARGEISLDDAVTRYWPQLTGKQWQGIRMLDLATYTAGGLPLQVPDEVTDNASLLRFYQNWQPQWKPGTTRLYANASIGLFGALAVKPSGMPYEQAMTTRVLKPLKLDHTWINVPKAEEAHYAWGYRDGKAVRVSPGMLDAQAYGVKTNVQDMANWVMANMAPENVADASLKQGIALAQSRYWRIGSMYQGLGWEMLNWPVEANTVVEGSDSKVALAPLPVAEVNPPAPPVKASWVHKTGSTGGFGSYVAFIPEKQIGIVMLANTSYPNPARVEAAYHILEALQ
CTX-M-15, sequence (Q9EXV5 entry or part of it): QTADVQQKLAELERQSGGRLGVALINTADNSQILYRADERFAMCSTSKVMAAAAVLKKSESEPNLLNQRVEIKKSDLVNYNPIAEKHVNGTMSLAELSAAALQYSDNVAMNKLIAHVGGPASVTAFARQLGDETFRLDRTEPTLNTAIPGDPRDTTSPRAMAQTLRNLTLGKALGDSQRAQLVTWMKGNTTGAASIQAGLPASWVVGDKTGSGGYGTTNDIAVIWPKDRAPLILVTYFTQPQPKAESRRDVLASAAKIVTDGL
OXA-23, sequence (Q9L4P2 18-273): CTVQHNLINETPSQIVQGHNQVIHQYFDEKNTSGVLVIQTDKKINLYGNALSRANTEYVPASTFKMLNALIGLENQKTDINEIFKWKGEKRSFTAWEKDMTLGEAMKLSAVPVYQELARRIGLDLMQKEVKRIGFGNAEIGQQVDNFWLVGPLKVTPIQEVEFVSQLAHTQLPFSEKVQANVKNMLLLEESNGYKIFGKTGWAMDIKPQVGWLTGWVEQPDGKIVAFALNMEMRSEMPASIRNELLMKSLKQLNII
PDC1, sequence (P24735 27-397): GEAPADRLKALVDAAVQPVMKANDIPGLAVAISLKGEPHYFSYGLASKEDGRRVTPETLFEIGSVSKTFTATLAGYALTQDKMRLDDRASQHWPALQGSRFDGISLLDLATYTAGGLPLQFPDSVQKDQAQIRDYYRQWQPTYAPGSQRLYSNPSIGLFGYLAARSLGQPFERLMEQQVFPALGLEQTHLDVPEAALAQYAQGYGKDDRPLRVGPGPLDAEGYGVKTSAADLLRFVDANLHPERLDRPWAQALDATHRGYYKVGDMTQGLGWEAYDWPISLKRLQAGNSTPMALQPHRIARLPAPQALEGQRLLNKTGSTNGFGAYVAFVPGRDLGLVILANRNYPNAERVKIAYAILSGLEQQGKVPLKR
CTX-M-14, sequence (Q9L5C7 entry or part of it): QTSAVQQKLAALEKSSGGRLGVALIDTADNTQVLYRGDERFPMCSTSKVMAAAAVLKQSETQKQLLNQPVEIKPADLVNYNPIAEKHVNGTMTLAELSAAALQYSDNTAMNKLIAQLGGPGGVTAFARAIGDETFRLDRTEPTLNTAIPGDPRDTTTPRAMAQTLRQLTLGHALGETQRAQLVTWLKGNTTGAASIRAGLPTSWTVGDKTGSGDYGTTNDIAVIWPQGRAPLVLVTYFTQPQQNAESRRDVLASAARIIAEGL

NCCN[C@H]1CC[C@H](CC(=O)N[C@H]2Cc3cccc(C(=O)O)c3OB2O)CC1 [Taniborbactam, taniborbactam]
Ki (CTX-M-14): 1.2 ± 0.5 nM | Ki (CTX-M-15): 2.6 ± 0.1 nM | Ki (OXA-23): > 20000 nM | Ki (P99): 2.4 ± 0.5 nM | Ki (PDC1): 22 nM | MIC [1]: >64 µg/mL | MIC [2]: >64 µg/mL | MIC [3]: >64 µg/mL | MIC [4]: >64 µg/mL | MIC [5]: >64 µg/mL | MIC [6]: >64 µg/mL | MIC [7]: >64 µg/mL

O=C(O)c1c(F)ccc2c1OB(O)[C@@H]1C[C@H]21 [Xeruborbactam, xeruborbactam]
Ki (CTX-M-14): 0.29 ± 0.06 nM | Ki (CTX-M-15): 0.37 ± 0.01 nM | Ki (OXA-23): 0.74 ± 0.28 nM | Ki (P99): 8 nM and 8.5 nM | Ki (PDC1): 14 nM | MIC ([1]; Escherichia coli, NCTC13353, read-out: MIC): 8 µg/mL | MIC (number of observations) ([1]; Table S1, repeated QC testing): 4 (1) - 8 (8) - 16 (2) µg/ml | MIC ([2]; Escherichia coli, read-out: MIC): 16 µg/mL | MIC ([3]; Klebsiella pneumoniae, ATCCBAA1705, read-out: MIC): 16 µg/mL | MIC (number of observations) ([3]; Table S1, repeated QC testing): 8 (2)-16 (44)-32 (2) µg/ml | MIC ([4]; Klebsiella pneumoniae, ATCCBAA2814, read-out: MIC): 32 µg/mL | MIC (number of observations) ([4]; Table S1, repeated QC testing): 16 (20)-32 (28) µg/ml | MIC ([5]; Klebsiella pneumoniae, read-out: MIC): 16 µg/mL | MIC ([6]; Klebsiella pneumoniae, ATCC700603, read-out: MIC): 16 µg/mL | MIC (number of observations) ([6]; Table S1, repeated QC testing): 8 (7)-16 (4) µg/ml | MIC ([7]; Pseudomonas aeruginosa, BAA3197, read-out: MIC): > 64 µg/mL | MIC (number of observations) ([7]; Table S1, repeated QC testing): 64 (1)- >128 (13) µg/ml | % of isolates with xeruborbactam MIC of ≤8 µg/mL [8]: 13.3% | MIC50 ([8]; read-out: MIC50 for xeruborbactam alone, range over all the subsets of isolates): 16 to 32 µg/mL | % of isolates without significant growth inhibition at 4 µg/mL ([8]; xeruborbactam alone at 4 µg/mL): > 99%

— paper PMC10648875 (Antimicrobial Agents and Chemotherapy, 2023)
